Test results from article PMC2746040 (Synapse (New York, N.Y.), 2009).
Several values for one entry are separate records, joined by “and”; a condition that tells them apart may be missing. Equal entries are not always repeated. Where two headings read alike, the source gives them in different places.

Tests used:
[1] = system: D2L-YFP; assay: Agonist-induced receptor internalization assessed via confocal microscopy; type: cell-based; conditions: 15 min, room temperature, 50 nM MNPA or 10 μM dopamine
[2] = target: T1, D2L DAR (Rattus norvegicus, UniProt P61169); type: cell-based; conditions: for % Maximum inhibition: 3 μM forskolin-stimulated cAMP accumulation, 10 min 37°C, HEK293T
[3] = target: T1, D2L DAR; type: binding
[4] = target: T1, D2L DAR; type: binding; conditions: intact cells; for hill coefficient: [3H]sulpiride competition
[5] = target: T1, D2L DAR; type: binding; conditions: for % decrease of Bmax: by Gpp(NH)p 100 μM
[6] = target: T1, D2L DAR; type: cell-based; conditions: 50 nM MNPA or 10 μM dopamine
[7] = target: T2, D3 DAR (Rattus norvegicus, UniProt P19020); type: cell-based
[8] = target: T2, D3 DAR; type: binding; conditions: read-out: KiL

T1 sequence (P61169 whole entry): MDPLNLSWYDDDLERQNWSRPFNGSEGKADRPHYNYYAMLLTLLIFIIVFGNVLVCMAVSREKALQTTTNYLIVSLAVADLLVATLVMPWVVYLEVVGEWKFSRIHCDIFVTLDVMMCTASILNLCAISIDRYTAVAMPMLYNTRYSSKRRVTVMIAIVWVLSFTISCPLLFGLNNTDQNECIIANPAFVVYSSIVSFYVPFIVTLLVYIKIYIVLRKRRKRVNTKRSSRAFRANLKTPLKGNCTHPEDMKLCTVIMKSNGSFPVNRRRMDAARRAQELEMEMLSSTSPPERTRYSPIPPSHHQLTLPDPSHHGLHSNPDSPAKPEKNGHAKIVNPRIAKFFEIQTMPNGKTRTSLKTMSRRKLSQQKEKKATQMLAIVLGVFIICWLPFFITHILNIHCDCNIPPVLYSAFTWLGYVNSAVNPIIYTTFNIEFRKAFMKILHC
T2 sequence (P19020 whole entry): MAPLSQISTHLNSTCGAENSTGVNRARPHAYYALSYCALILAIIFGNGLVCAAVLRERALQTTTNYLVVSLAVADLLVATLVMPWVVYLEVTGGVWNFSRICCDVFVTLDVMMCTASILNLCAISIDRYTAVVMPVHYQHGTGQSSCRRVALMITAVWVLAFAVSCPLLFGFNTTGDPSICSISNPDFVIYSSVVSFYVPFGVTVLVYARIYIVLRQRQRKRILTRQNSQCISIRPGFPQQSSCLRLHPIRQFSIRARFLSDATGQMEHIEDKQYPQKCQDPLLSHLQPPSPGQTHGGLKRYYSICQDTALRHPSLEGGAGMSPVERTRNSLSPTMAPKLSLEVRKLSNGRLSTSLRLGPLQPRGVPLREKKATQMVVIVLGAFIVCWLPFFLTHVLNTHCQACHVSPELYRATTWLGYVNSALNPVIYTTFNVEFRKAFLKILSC

With NCCc1ccc(O)c(O)c1 [Dopamine, dopamine, reference compound] the “internalization of the D2-YFP receptor (confocal images)” value [1] was “some of the D2-YFP fluorescence is apparent in punctuated, vesicle-like structures in the cytosol”.

CCCN1CCc2cc(O[11CH3])cc3c2[C@H]1Cc1ccc(O)c(O)c1-3 [MNPA, (R)-2-^11CH3O-N-n-propylnorapomorphine] was tested, and the “% Maximum inhibition” value [2] was 82 ± 3%, the “agonist character at the D2L DAR” value ([2]; cAMP accumulation) was “potent and full agonist” and the “fold lower Ki values than dopamine” value [3] was 200-1000 fold. The “% RH (percentage of receptors configured in the GTP sensitive high-affinity state)” value ([3]; absence of GTP) was 24 ± 1%, the hill coefficient [4] was 1.7 ± 0.2 and the “fold increase of Kd by Gpp(NH)p” value ([5]; Gpp(NH)p 100 μM) was roughly 2 fold. The “% decrease of Bmax” value [5] was 21 ± 9%, the “% decrease of Bmax” value ([5]; listed as [^3H]MNPA) was 17-21% and the “% decrease of Bmax” value ([6]; Arrestin2 co-transfection) was 53 ± 2%. The “Bmax of [3H]sulpiride after agonist pretreatment” value (“Bmax of [3H]sulpiride” for short) ([6]; Arrestin2 co-transfection) was 3.00 ± 0.33 fmol/10^5cells, the “% decrease of Bmax” value ([6]; Arrestin3 co-transfection) was 68 ± 8% and the “Bmax of [3H]sulpiride” value ([6]; Arrestin3 co-transfection) was 2.75 ± 0.27 fmol/10^5cells. For the same compound, the “% decrease of Bmax” value ([6]; pcDNA transfection) was 23% and 23 ± 7%, the “Bmax of [3H]sulpiride” value ([6]; pcDNA transfection) was 7.25 ± 0.53 fmol/10^5cells and the “fold higher EC50 at D3 DAR compared to D2 DAR” value [7] was roughly 10 fold. For the same compound, the “fold reduction in potency by (+)-butaclamol” value ([7]; 10 μM (+)butaclamol) was 100 fold, the “agonist character at the D3 DAR” value ([7]; cAMP accumulation) was “full agonist” and the “potency relative to dopamine at the D3 DAR” value ([7]; cAMP accumulation) was “slightly less potent than dopamine”. The “inhibition of forskolin stimulated cAMP accumulation” value ([7]; maximal extent) was 42-43% and the “internalization of the D2-YFP receptor (confocal images)” value [1] was “promotes internalization of the D2-YFP receptor”.

With CN1CN(c2ccccc2)C2(CCN(CCCC(=O)c3ccc(F)cc3)CC2)C1=O [MSP, methylspiperone, reference compound] the “effect of Gpp(NH)p on binding” value ([5]; Gpp(NH)p 100 μM) was “no effect”.

With CCCN1CCc2cc(OC)cc3c2[C@H]1Cc1ccc(O)c(O)c1-3 [MNPA, (R)-2-^11CH3O-N-n-propylnorapomorphine] the IC50 ([2]; inhibition of forskolin-stimulated cAMP accumulation, no antagonist) was 0.33 ± 0.26 nM, the Ki ([3]; read-out: KiH, high affinity state, absence of GTP, [3H]methylspiperone ~0.2 nM) was 0.09 ± 0.02 nM and the Ki ([3]; read-out: KiL, + GTP 100 μM, single site) was 13.7 ± 3.3 nM. The Ki ([3]; read-out: KiL, low affinity state, absence of GTP) was 16.9 ± 3.2 nM, the Ki ([4]; [3H]sulpiride ~2 nM, 1 hour 37°C, single site) was 109 ± 52 nM and the IC50 ([7]; 3 μM forskolin, D3 DAR + AC-V, no antagonist) was 3.43 nM. For the same compound, the EC50 ([7]; read-out: EC50 value for inhibiting D3 DAR activity) was 3.4 nM, the Ki ([8]; + GTP 100 μM (dopamine: one-site fit)) was 1.09 ± 1.7 nM and the Ki ([8]; absence of GTP (dopamine: one-site fit)) was 1.02 ± 0.2 nM.

CCCN1CCc2cccc3c2[C@H]1Cc1ccc(O)c(O)c1-3 [NPA, N-n-propylnorapomorphine, reference compound] was tested, and the “% Maximum inhibition” value [2] was 72 ± 8%, the “% RH (percentage of receptors configured in the GTP sensitive high-affinity state)” value ([3]; absence of GTP) was 24 ± 1% and the hill coefficient [4] was 1.5 ± 0.2. The “% decrease of Bmax” value [5] was 17 ± 5% and the “% decrease of Bmax” value ([5]; listed as [^3H]NPA) was 17-21%.
